Measurements: US12514943B2 (priority 2020, dated 2026)

Each compound was assayed on Aspergillus brasiliensis (ATCC 16404) (assay: Evaluation test for microbicidal effect, suspension test EN 13624:2013 (clean conditions)). Conditions: equal molar amount instead of glycine in the formula of Example 1-1.
Format: cell-based

SMILES | enhancement of the microbicidal activity of the acidic oxidant of peracetic acid and hydrogen peroxide (in words)
O=P([O-])([O-])O.[K+].[K+] [dipotassium hydrogen phosphate] | could not enhance the microbicidal activity
CC(=O)O [acetic acid] | could not enhance the microbicidal activity
O=P([O-])([O-])[O-].[Na+].[Na+].[Na+] [trisodium phosphate] | could not enhance the microbicidal activity
